Laboratory results reported in patent publication US9422277B2, “Tricyclic substituted thiadiazine dioxide compounds as BACE inhibitors, compositions and their use” (Merck Sharp & Dohme Corp., priority 2012, dated 2016).

Columns and labels:
[1] = target: soluble human BACE1 catalytic domain (Homo sapiens (Human), UniProt P56817); assay: BACE1 HTRF FRET Assay; type: biochemical; settings: Ki calculated from IC50 using the Cheng-Prusoff equation
From the text: A homogeneous time-resolved FRET assay can be used to determine IC50 values for inhibitors of the soluble human BACE1 catalytic domain. This assay monitors the increase of 620 nm fluorescence that resulted from BACE1 cleavage of an APPswedish APP^swe mutant peptide FRET substrate (QSY7-[…]-Europium-amide). This substrate contains an N-terminal QSY7 moiety that serves as a quencher of the C-terminal Europium fluorophore (620 nm Em). In the absence of enzyme activity, 620 nm fluorescence is low in the assay and increased linearly over 3 hours in the presence of uninhibited BACE1 enzyme Inhibition of BACE1 cleavage of the QSY7-APP^swe-Eu substrate by inhibitors is manifested as a suppression of 620 nm fluorescence.
Reactions are initiated by addition of 10 μl of 600 nM QSY7-APP^swe-Eu substrate (200 nM final) to give a final reaction volume of 30 μl in a 384 well Nunc HTRF plate. The reactions are incubated at 30° C. for 1.5 hours. The 620 nm fluorescence is then read on a Rubystar HTRF plate reader (BMG Labtechnologies) using a 50 millisecond delay followed by a 400 millisecond acquisition time window Inhibitor IC50 values are derived from non-linear regression analysis of concentration response curves.

[2] = target: purified human autoBACE-2 (Homo sapiens (Human), UniProt Q9Y5Z0); assay: BACE-2 Assay (BACE-HTRF assay); type: biochemical; settings: Ki calculated from IC50 using the Cheng-Prusoff equation; read-out: BACE2 Ki
Sequence of purified human autoBACE-2 (Q9Y5Z0 63-473 limits assumed): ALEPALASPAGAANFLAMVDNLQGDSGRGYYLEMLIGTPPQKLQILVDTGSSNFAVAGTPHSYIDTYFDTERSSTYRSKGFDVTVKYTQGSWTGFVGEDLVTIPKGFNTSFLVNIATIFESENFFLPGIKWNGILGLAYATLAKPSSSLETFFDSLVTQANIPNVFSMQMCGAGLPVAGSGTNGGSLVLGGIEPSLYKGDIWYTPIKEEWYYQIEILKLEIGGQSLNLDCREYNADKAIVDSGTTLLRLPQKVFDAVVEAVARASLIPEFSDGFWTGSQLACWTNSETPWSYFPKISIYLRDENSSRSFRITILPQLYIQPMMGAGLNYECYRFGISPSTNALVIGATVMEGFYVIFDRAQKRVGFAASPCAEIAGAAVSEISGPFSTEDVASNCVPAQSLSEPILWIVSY
Description: Inhibitor IC50s at purified human autoBACE-2 are determined in a time-resolved endpoint proteolysis assay that measures hydrolysis of the QSY7-[…]-Eu-amide FRET peptide substrate (BACE-HTRF assay). BACE-mediated hydrolysis of this peptide results in an increase in relative fluorescence (RFU) at 620 nm after excitation with 320 nm light Inhibitor compounds, prepared at 3× the desired final concentration in 1×BACE assay buffer (20 mM sodium acetate pH 5.0, 10% glycerol, 0.1% Brij-35) supplemented with 7.5% DMSO are pre-incubated with an equal volume of autoBACE-2 enzyme diluted in 1×BACE assay buffer (final enzyme concentration 1 nM) in black 384-well NUNC plates for 30 minutes at 30° C. […] DMSO is present at 5% final concentration in the assay. Following laser excitation of sample wells at 320 nm, the fluorescence signal at 620 nm is collected for 400 ms following a 50 μs delay on a RUBYstar HTRF plate reader (BMG Labtechnologies). Raw RFU data is normalized to maximum (1.0 nM BACE/DMSO) and minimum (no enzyme/DMSO) RFU values. IC50s are determined by nonlinear regression analysis (sigmoidal dose response, variable slope) of percent inhibition data with minimum and maximum values set to 0 and 100 percent respectively. Similar IC50s are obtained when using raw RFU data. The Ki values are calculated from the IC50 using the Cheng-Prusoff equation.

human P-glycoprotein = human P-glycoprotein (Homo sapiens (Human), UniProt P08183); assay: Efflux by human P-glycoprotein (Pgp Mdr1 efflux ratio); type: in vitro ADME
Sequence of human P-glycoprotein (P08183 whole entry): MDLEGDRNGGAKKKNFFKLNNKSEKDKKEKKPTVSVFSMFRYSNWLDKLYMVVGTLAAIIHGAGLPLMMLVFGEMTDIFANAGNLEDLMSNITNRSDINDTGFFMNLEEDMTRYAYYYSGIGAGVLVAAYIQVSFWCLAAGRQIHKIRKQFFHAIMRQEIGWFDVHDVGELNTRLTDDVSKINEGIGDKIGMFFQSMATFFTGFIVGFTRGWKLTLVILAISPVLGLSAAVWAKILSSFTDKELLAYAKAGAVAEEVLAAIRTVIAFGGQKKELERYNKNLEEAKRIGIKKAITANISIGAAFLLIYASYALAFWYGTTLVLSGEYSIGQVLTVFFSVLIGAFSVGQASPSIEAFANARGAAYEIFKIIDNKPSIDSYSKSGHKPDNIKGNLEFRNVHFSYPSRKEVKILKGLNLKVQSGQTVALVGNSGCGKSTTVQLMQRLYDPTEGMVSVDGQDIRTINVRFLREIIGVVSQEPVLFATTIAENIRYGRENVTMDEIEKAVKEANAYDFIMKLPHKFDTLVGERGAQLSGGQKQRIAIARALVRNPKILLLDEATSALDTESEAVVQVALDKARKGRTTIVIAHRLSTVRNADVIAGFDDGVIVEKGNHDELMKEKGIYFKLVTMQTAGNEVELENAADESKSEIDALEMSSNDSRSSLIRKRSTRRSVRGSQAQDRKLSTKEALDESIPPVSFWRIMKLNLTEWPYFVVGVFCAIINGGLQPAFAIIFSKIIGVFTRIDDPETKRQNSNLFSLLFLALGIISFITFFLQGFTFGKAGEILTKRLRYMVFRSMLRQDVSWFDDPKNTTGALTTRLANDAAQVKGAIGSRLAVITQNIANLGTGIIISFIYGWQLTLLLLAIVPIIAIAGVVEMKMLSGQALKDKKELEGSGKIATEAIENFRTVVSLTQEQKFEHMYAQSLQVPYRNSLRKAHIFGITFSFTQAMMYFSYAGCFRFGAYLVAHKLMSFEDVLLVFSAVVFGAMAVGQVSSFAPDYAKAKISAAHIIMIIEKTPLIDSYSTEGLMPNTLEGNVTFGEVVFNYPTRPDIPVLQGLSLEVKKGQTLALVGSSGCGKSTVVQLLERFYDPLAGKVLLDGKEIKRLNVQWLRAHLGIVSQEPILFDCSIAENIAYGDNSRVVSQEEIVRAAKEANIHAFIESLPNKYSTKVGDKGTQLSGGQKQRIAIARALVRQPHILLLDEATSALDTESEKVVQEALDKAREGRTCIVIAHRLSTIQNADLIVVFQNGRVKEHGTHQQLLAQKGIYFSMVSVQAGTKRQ

Sequence of soluble human BACE1 catalytic domain (P56817 75-416): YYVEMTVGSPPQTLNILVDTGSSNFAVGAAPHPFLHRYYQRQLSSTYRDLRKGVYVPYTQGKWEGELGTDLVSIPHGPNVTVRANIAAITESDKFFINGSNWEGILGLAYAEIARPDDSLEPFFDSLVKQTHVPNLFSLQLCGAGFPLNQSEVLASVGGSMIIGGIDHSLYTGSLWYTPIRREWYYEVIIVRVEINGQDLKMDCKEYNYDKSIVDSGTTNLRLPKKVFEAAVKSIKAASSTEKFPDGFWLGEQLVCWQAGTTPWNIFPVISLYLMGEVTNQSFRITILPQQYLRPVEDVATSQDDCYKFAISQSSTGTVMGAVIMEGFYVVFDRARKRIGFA

Ki [1] [nM]	Ki [2] [nM]	Pgp Mdr1 ER (human P-glycoprotein)	SMILES
28.8	13.8	1.1	CN1C(=N)N[C@](C)(c2sc(-c3nnc(-c4ccc(Cl)cc4)o3)cc2Cl)CS1(=O)=O [Example 16]
38.6	34.6	1.0	COc1ccc(-c2nnc(-c3cc(Cl)c([C@]4(C)CS(=O)(=O)N(C)C(=N)N4)s3)o2)cc1 [Example 17]
58.9	155	0.7	CN1C(=N)N[C@](C)(c2sc(-c3nnc(-c4ccc(C(F)(F)F)cc4)o3)cc2Cl)CS1(=O)=O [Example 18]
31.9	13.6	1.0	CN1C(=N)N[C@](C)(c2sc(-c3nnc(-c4ccc(Cl)cc4)o3)cc2F)CS1(=O)=O [Example 19]
106	7.76	1.3	CN1C(=N)N[C@](C)(c2sc(-c3nnc(-c4ccccc4)o3)cc2Cl)CS1(=O)=O [Example 20]
65.5	13	1.4	CN1C(=N)N[C@](C)(c2sc(-c3nnc(-c4ccc(F)cc4)o3)cc2Cl)CS1(=O)=O [Example 22]
205	533	–	CC(C)Oc1ccc(-c2nnc(-c3cc(Cl)c([C@]4(C)CS(=O)(=O)N(C)C(=N)N4)s3)o2)cc1 [Example 60]
100	258	–	CCCCOc1ccc(-c2nnc(-c3cc(Cl)c([C@]4(C)CS(=O)(=O)N(C)C(=N)N4)s3)o2)cc1 [Example 61]
84.2	313	–	CCCOc1ccc(-c2nnc(-c3cc(Cl)c([C@]4(C)CS(=O)(=O)N(C)C(=N)N4)s3)o2)cc1 [Example 62]
227	527	–	CN1C(=N)N[C@](C)(c2sc(-c3nnc(-c4ccc(OCc5ccccc5)cc4)o3)cc2Cl)CS1(=O)=O [Example 63]
160	356	–	CCCCCOc1ccc(-c2nnc(-c3cc(Cl)c([C@]4(C)CS(=O)(=O)N(C)C(=N)N4)s3)o2)cc1 [Example 64]
156	366	–	CN1C(=N)N[C@](C)(c2sc(-c3nnc(-c4ccc(C(F)(F)F)c(F)c4)o3)cc2Cl)CS1(=O)=O [Example 65]
1360	1070	–	CN1C(=N)N[C@](C)(c2sc(-c3nnc(-c4ccc(C5(C#N)COC5)cc4)o3)cc2Cl)CS1(=O)=O [Example 66]
1110	1870	–	CN1C(=N)N[C@](C)(c2sc(-c3nnc(-c4ccc(C5CCC(F)(F)C5)cc4)o3)cc2Cl)CS1(=O)=O (some centres unmarked) [Example 67]
5360	2990	–	CN1C(=N)N[C@](C)(c2sc(-c3nnc(-c4ccc(N5CCCCC5)cc4)o3)cc2Cl)CS1(=O)=O [Example 68]
1030	1070	–	CN1C(=N)N[C@](C)(c2sc(-c3nnc(-c4ccc(N5CCCC5=O)cc4)o3)cc2Cl)CS1(=O)=O [Example 69]

Ki [1] [nM]	Ki [2] [nM]	Pgp Mdr1 ER (human P-glycoprotein)	SMILES
180	1350	–	CN1C(=N)N[C@](C)(c2sc(-c3nnc(-c4ccc(-n5cnnn5)cc4)o3)cc2Cl)CS1(=O)=O [Example 70]
155	181	–	CN1C(=N)N[C@](C)(c2sc(-c3nnc(-c4ccc(-n5cccn5)cc4)o3)cc2Cl)CS1(=O)=O [Example 71]
422	1150	–	Cc1nc2cc(-c3nnc(-c4cc(Cl)c([C@]5(C)CS(=O)(=O)N(C)C(=N)N5)s4)o3)ccc2s1 [Example 72]
171	336	–	CN1C(=N)N[C@](C)(c2sc(-c3nnc(-c4ccc5scnc5c4)o3)cc2Cl)CS1(=O)=O [Example 73]
887	1990	–	CN1C(=N)N[C@](C)(c2sc(-c3nnc(-c4ccc5c(c4)C(=O)CC5)o3)cc2Cl)CS1(=O)=O [Example 74]
164	303	–	CN1C(=N)N[C@](C)(c2sc(-c3nnc(-c4ccc(C(F)(F)F)cn4)o3)cc2Cl)CS1(=O)=O [Example 75]
108	243	–	CN1C(=N)N[C@](C)(c2sc(-c3nnc(-c4ccc(-c5ccon5)cc4)o3)cc2Cl)CS1(=O)=O [Example 76]
258	1280	–	CN1C(=N)N[C@](C)(c2sc(-c3nnc(-c4ccc(-c5noc(C(F)(F)F)n5)cc4)o3)cc2Cl)CS1(=O)=O [Example 77]
56	143	–	CN1C(=N)N[C@](C)(c2sc(-c3nnc(-c4ccc(OC(F)(F)F)cc4)o3)cc2Cl)CS1(=O)=O [Example 78]
51.6	132	–	CN1C(=N)N[C@](C)(c2sc(-c3nnc(-c4ccc(OC(F)F)cc4)o3)cc2Cl)CS1(=O)=O [Example 79]
138	671	–	COC(=O)Cc1ccc(-c2nnc(-c3cc(Cl)c([C@]4(C)CS(=O)(=O)N(C)C(=N)N4)s3)o2)cc1 [Example 80]
1460	337	–	CN1C(=N)N[C@](C)(c2sc3c(-c4cnn(-c5ccccc5)c4)cccc3c2F)CS1(=O)=O [Example 81]
4890	2940	–	CN1C(=N)N[C@](C)(c2sc3c(-c4coc(-c5ccc(F)cc5)n4)cccc3c2F)CS1(=O)=O [Example 82]
3180	3320	–	CN1C(=N)N[C@](C)(c2sc3c(-c4cnc(-c5ccc(F)cc5)o4)cccc3c2F)CS1(=O)=O [Example 83]
265	27.9	–	CN1C(=N)N[C@](C)(c2sc(-c3cnn(-c4ccccc4)c3)cc2Cl)CS1(=O)=O [Example 85]
